Data: patent US20080075786A1, “Antimicrobial agents derived from cream” (Universite de Montreal, priority 2006, published 2008)
Read-outs that look alike come from different tables or passages of the source.

How the values were obtained:
[1] = system: Candida albicans SC5314 strain; assay: Germination inhibition assay (antihyphal growth activity); assay type: cell-based; details: for MIC: commercial free fatty acids, gravimetrical quantification, read-out: MIC, antihyphal growth activity of individual free fatty acids
Experimental: The Candida albicans SC5314 strain (Fonzi, W. A. and Irwin, M. Y. 1993. Isogenic strain construction and gene mapping in Candida albicans. Genetics 134: 717-728.) was used to investigate the antihyphal activity of whey cream lipids. This strain was routinely grown as yeast cells at 30° C. in YPD medium (1% yeast extract, 2% peptone, 2% dextrose). Germination was induced by incubating cells in dextrose-free Sabouraud (Difco; Joshi, K. R., Gavin, J. B., and Bremner, D. A. 1973. The formation of germ tubes by Candida albicans in various peptone media. Sabouraudia. 11: 259-262.) at 37° C. in 96-wells microtiter plates (Costar 3595). Briefly, cells from fresh YPD cultures were harvested and washed twice with sterile water. Washed cells were suspended in dextrose-free Sabouraud at a density of 5×10^3 cells/ml and then immediately distributed to microtiter wells containing an equal volume of dextrose-free Sabouraud supplemented with different concentrations of lipids. After 15 h incubation at 37° C. in an atmospheric incubator without agitation, cells were washed and fixed with a fresh 1% formaldehyde solution. The ability of lipids to inhibit germination was determined by microscopic observations.

[2] = system: Candida albicans ZK3379 strain (CAI-4 HWP1-lacZ); assay: C. albicans HWP1-lacZ beta-galactosidase and XTT assays (kinetics of germination inhibition in hyphae inducing media); assay type: cell-based
Experimental: Candida albicans ZK3379 strain (CAI-4 HWP1-lacZ; Hogan, D A, Vik A, Kolter R (2004). A Pseudomonas aeruginosa quorum-sensing molecule influences Candida albicans morphology. Mol Microbiol 54: 1212-1223.) was used for beta-galactosidase and XTT assays. Cells from this strain were grown in YPDA at 30° C. to a density of about 1×10^8 cells/ml (hemacytometer). These late exponentially growing cells were then washed twice with water and kept on ice until used. Germination was induced by incubating cells (final density of 5×10^5 cells/ ml) at 37° C. in 2.5 ml of either dextrose-free Sabouraud (Joshi et al., 1973), Lee's (Lee K L, Buckley H R, Campbell C C (1975). An amino acid liquid synthetic medium for the development of mycelial and yeast forms of Candida albicans. Sabouraudia 13: 148-153, Spider (Liu H, Kohler J, Fink Gr (1994). Suppression of hyphal formation in Candida albicans by mutation of a STE12 homolog. Science 266: 1723-1726 or Hypha-Forming Media (Biswas S K, Yokoyama K, Kamei K, Nishimur K, Miyaji M (2001) Inhibition of hyphal growth of Candida albicans by activated lansoprazole, a novel benzimidazole proton pump inhibitor Med Mycol 39: 283-285.), supplemented with FFAs. All lipids were dissolved in ethanol. Assays were performed in duplicate in 24-wells mictotiter plates (Costar 3526) without agitation. After appropriate incubation times (i.e. 0, 2, 4 or 6 h), microtiter plates were centrifuged for 5 min at 2000 rpm (Jouan inc. CR3i) and supernatents, discarded. XTT assays were done immediately and essentially as described (Honraet K, Goetghebeur E, Nelis H J (2005). Comparison of three assays for the quantification of Candida biomass in suspension and CDC reactor grown biofilms. J Microbiol Methods 63: 287-295). For beta-galactosidase assays, microtiter plates were frozen at −80° C. and processed later as described (Kippert F (1995). A rapid permeabilization procedure for accurate quantitative determination of beta-galactosidase activity in yeast cells. FEMS Microbiol Lett 128: 201-206; Hogan et al., 2004) but directly in microtiters plates. Absorbances were measured in 96-well microtiters plates using a microtiter plate reader (Microplate Reader MR600), equipped with filters of 410 nm (beta-galactosidase) and 490 nm (XTT), respectively.
As inhibition of germination of C. albicans by molecules could be the result of early and/or late blocking events, a more comprehensive analysis of the activity of free fatty acids was performed using multiple time points and other germ tube inducing media. Therefore, germination was monitored at 0, 2, 4 and 6 h in dextrose-free Sabouraud, Lee's, Spider and HFM7 (i.e. serum) media using the C. albicans HWP1-lacZ assay: beta-galactosidase measurements should reflect the morphological change from yeast cells to hyphal growth (Hogan et al., 2004). beta-galactosidase results were normalized using the XTT assay (Honraet et al., 2005) to correct for biomass increase. Microscopic observations of cells after 6 h incubation are also presented for each inducing conditions and correlated with beta-galactosidase data (FIG. 2).

[3] = system: A. fumigatus; assay: Antifungal assay against A. fumigatus (optical density at 630 nm); assay type: cell-based; details: Aspergillus fumigatus; Sabouraud, 30° C., 40 h; commercial FFA
Experimental: (§1) Fractionation of Blackcurrant Seed Oil. Journal of the American Oil Chemists Society 65: 755-760). […] Under constant stirring, the mixture was heated to 75° C., or until it became clear, and then cooled slowly to 2° C. After completion of urea crystallization at 2° C. (15 h), the UFFA enriched methanol phase was separated from the urea crystals by centrifugation (5 min) at 1000×g. […] Yields were determined gravimetrically. […] UV detection was used to monitor effluent at 215 nm. Water (10 ml) was added to each of the 45 collected HPLC fractions, and they were then extracted three times with hexane (3×10 ml). […] Antifungal assay using commercial FFA were done in quadruplicates. The antifungal activity was evaluated in 96-well microtiter plates (Costar 3595) using Sabouraud as incubating medium for A. fumigatus and dextrose-free Sabouraud for C. albicans. Spores of A. fumigatus (Jeanine Joly, Université de Montréal) were germinated at 25° C. on slant agar Sabouraud media. They were harvested by washing vigorously slant cultures with 5 ml of 0.9% NaCl. Coarse debris were removed by filtrating the Aspergillus spores suspension through a sterile cotton plugs inserted into a Pasteur pipet. Monodisperse spores suspensions were obtained following brief sonications in a water bath sonicator (Branson 1210). […] Blastospores of the C. albicans SC5314 strain were prepared as for germination inhibition assays (see above). […] Wells were washed three times with Sabouraud before optical reading.

[4] = system: C. albicans SC5314 strain; assay: Antifungal assay against C. albicans (optical density at 630 nm); assay type: cell-based, Candida albicans; details: dextrose-free Sabouraud, 37° C., commercial FFA
Experimental: as §1

[5] = in vitro; details: human, Toxicity (TC50) PBMCs
Experimental: (§2) Cytotoxicity was evaluated using Peripheral Blood Mononuclear cells (PBMC) of volunteers donors (Royal Victoria Hospital, Montreal). These cells were purified by the ficoll-Paque PLUS according to the manufacturer (Amersham-Bioscience). PBMC were used at a density of 100 000 cells/ml in RPMI 1640 (Sigma) supplemented with 10% heat-inactivated fetal bovine serum, 0.3 g/L of L-glutamine, 2 g/L sodium carbonate, 100 U/ml of penicillin and 100 μg/ml of streptomycin (Sigma). Assays were done in 96-well microtiter plates (Costar 3595) and the cytotoxicity was evaluated after 24 hours of incubation at 37° C. in a 5% CO2 atmospheric incubator using the LDH Cytotoxicity detection kit, according to the manufacturer (Roche Diagnostic). […] FFA were diluted in ethanol (96%) and no more than 1% ethanol (final concentration) was used in assays. Ethanol (1%) was used as negative control.
(§3) This method measures the release of lactate dehydrogenase (LDH) from the cytosol of damaged cells into the supernatant (Roche Diagnostic).

[6] = system: Peripheral Blood Mononuclear cells (PBMC); assay: in vitro; details: human, 24 h
Experimental: as §2, §3

[7] = system: mammalian cells; assay: Toxicity for mammalian cells in vitro; assay type: cell-based; details: thousand fold less concentrated solution than 10 mM; Bergsson et al., 2001; data not shown
[8] = system: C. albicans yeast cells; details: 10 mM; cited from earlier work
[9] = Candida albicans, SC5314, complete inhibition of germination, 15 h, 37° C.
[10] = Candida albicans, SC5314, same MIC in μg/ml (in brackets)

For CCCCCCCCCC(=O)O [Capric acid (C10:0), capric acid], the MIC [1, 9] was 9 µM, the MIC [1, 10] was 1.55 µg/mL and the “activity at inhibiting C. albicans germination” value ([1]; individual commercial free fatty acids, highest concentration used 81 μM) was “similarly active to lauric acid”. The “germ tube emergence and elongation” value ([2]; all inducing conditions tested (dextrose-free Sabouraud, Lee's, Spider, HFM7), 0-6 h (FIG. 2)) was “completely inhibited the emergence of germ tubes”, the IC50 [3] was 127 µM and the IC50 ([4]; Candida albicans, SC5314, 40 h) was 182 µM. For the same compound, the CC50 at 24 h [5] was 1430 ± 32 µM, the “TC50, PBMC” value [6] was “about 1.4 mM” and the “toxicity for mammalian cells in vitro” value [7] was “not toxic”. The “killing C. albicans yeast cells” value [8] was “highly active”.
With CCCC/C=C\CCCCCCCC(=O)O [Myristoleic acid (C14:1n-5), myristoleic acid] the MIC [1, 9] was 9 µM, the MIC [1, 10] was 2.04 µg/mL and the MIC ([1]; complete inhibition of germination, 15 h, 37° C.) was 9 µM. The “appearance of germ tubes” value ([2]; Spider and HFM7 media) was “partially inhibited the appearance of germ tubes”, the “appearance of germ tubes” value ([2]; dextrose-free Sabouraud and Lee's inducing media) was “strongly inhibited the appearance of germ tubes” and the IC50 [3] was 192 µM. For the same compound, the IC50 ([4]; Candida albicans, SC5314, 40 h) was 82 µM, the IC50 ([4]; 40 h) was 81.9 ± 9.2 µM and the CC50 at 24 h [5] was 72 µM. For the same compound, the CC50 [6] was 71.9 ± 6.2 µM.
